Assay results taken from PMC9127750, “Structure-based design of CDC42 effector interaction inhibitors for the treatment of cancer” (Cell reports, 2022).
Where “and” joins values, the source holds several entries; their conditions need not be identical. Equal values may be shown once.

Test system: WM3248 melanoma cells, 486 antibodies
Assay: Reverse phase protein arrays (RPPA)
Assay type: cell-based, Human
Excerpt: Pellets were snap frozen in liquid nitrogen and shipped to MD Anderson Cancer Center core RPPA facility for RPPA analysis (Table S5). Three biological replicates for each sample were generated.
Nomenclatures on the RPPA heatmaps: name_of_antibody.species_of_antibody.status_of_antibody. V - antibody validated; C - validation of antibody in progress; Q - antibody nonspecific; E – under evaluation; antibodies raised in M - mouse, G - goat, R - rabbit, or T - rat.

[1] = Norm_10: replicates 1-3 and Average, relative to 0

CN(C)c1cccc(Nc2cc(-c3ccccc3)nc(C3CCNCC3)n2)c1 [ARN22089, N1,N1-dimethyl-N3-(6-phenyl-2-(piperidin-4-yl)pyrimidin-4-yl)benzene-1,3-diamine]
p38.MAPK.R.V Average (Norm_10, normalized to Norm_0): 0.984
p38.MAPK._pT180_Y182.R.V Average (Norm_10, normalized to Norm_0): 0.822
p38.a.M.V Average (Norm_10, normalized to Norm_0): 1.035
p44.42.MAPK.R.V Average (Norm_10, normalized to Norm_0): 1.129
p70.S6K1.R.V Average (Norm_10, normalized to Norm_0): 1.024
p90RSK_pT573.R.C Average (Norm_10, normalized to Norm_0): 0.999
PREX1.R.V normalized RPPA signal [1]: 1.017 and 0.962 and 0.972
PTEN.R.V normalized RPPA signal [1]: 1.166 and 0.849 and 0.856 and 0.957
PTPN12.R.V normalized RPPA signal [1]: 0.749 and 0.939 and 0.909
PYGB.R.V normalized RPPA signal [1]: 1.205 and 1.156 and 1.144
PYGM.M.C normalized RPPA signal [1]: 0.918 and 2.001 and 1.335
Puma.R.C normalized RPPA signal [1]: 1.060 and 1.017 and 1.055
Pyk2_pY402.R.C normalized RPPA signal [1]: 1.111 and 0.863 and 0.946
RBM15.R.V normalized RPPA signal [1]: 0.891 and 1.000 and 0.960 and 0.950
RIP3.R.C normalized RPPA signal [1]: 0.942 and 0.921 and 0.948 and 0.937
RIP.R.C normalized RPPA signal [1]: 0.780 and 1.118 and 1.150 and 1.016
RPA32.R.V normalized RPPA signal [1]: 1.060 and 1.362 and 1.197 and 1.207
RPA32_pS4_S8.R.C normalized RPPA signal [1]: 1.546 and 1.295 and 1.489 and 1.443
RRM1.R.C normalized RPPA signal [1]: 0.939 and 0.806 and 0.945 and 0.897
RRM2.R.C normalized RPPA signal [1]: 0.757 and 0.774 and 0.866
RSK1.R.V normalized RPPA signal [1]: 1.143 and 1.201 and 1.128
RSK.R.C normalized RPPA signal [1]: 0.838 and 1.004 and 0.972
Rab11.R.C normalized RPPA signal [1]: 1.030 and 0.917 and 0.953
Rab25.R.V normalized RPPA signal [1]: 1.035 and 0.882 and 0.858 and 0.925
Rad17_pS645.R.V normalized RPPA signal [1]: 0.792 and 0.966
Rad23A.R.C normalized RPPA signal [1]: 0.804 and 0.923 and 1.597 and 1.108
Rad50.R.V normalized RPPA signal [1]: 1.116 and 1.111
Rad51.R.C normalized RPPA signal [1]: 0.827 and 0.908 and 0.944 and 0.893
Raptor.R.V normalized RPPA signal [1]: 0.845 and 0.882 and 0.940 and 0.889
Rb.M.Q normalized RPPA signal [1]: 0.863 and 1.097 and 1.016
Rb_pS807_S811.R.V normalized RPPA signal [1]: 0.811 and 0.958 and 0.878
Rheb.M.C normalized RPPA signal [1]: 1.032 and 1.240 and 1.115
Rictor.R.C normalized RPPA signal [1]: 0.988 and 0.910 and 0.945 and 0.948
Rictor_pT1135.R.V normalized RPPA signal [1]: 0.873 and 0.950 and 0.954
S6.M.V normalized RPPA signal [1]: 1.085 and 0.996 and 1.017
S6_pS235_S236.R.V normalized RPPA signal [1]: 0.521 and 0.472 and 0.641 and 0.545
S6_pS240_S244.R.V normalized RPPA signal [1]: 0.582 and 0.274 and 0.654 and 0.504
SCD.M.V normalized RPPA signal [1]: 0.991 and 1.046
SDHA.R.V normalized RPPA signal [1]: 0.992 and 0.940 and 0.859 and 0.930
SF2.R.V normalized RPPA signal [1]: 0.895 and 1.050 and 0.922 and 0.956
SFRP1.R.V normalized RPPA signal [1]: 0.808 and 0.981 and 1.003 and 0.931
SGK1.R.V normalized RPPA signal [1]: 1.008 and 0.920 and 1.014 and 0.981
SGK3.R.V normalized RPPA signal [1]: 0.816 and 0.987 and 0.963 and 0.922
SHP2.R.V normalized RPPA signal [1]: 0.944 (2×) and 1.029 and 0.972
SHP.2_pY542.R.C normalized RPPA signal [1]: 1.060 and 0.917 and 0.992 and 0.990
SIRPαR.V normalized RPPA signal [1]: 0.835 and 1.085 and 0.937 and 0.953
SLC1A5.R.C normalized RPPA signal [1]: 1.027
SOD1.M.V normalized RPPA signal [1]: 0.907 and 1.127 and 1.007 and 1.014
SOD2.R.V normalized RPPA signal [1]: 1.018 and 1.276 and 0.952 and 1.082
SOX7.R.V normalized RPPA signal [1]: 1.145 and 1.060
STING.R.V normalized RPPA signal [1]: 0.851 and 0.953
Shc_pY317.R.C normalized RPPA signal [1]: 0.714 and 5.496 and 1.397 and 2.535
Slfn11.G.C normalized RPPA signal [1]: 0.876 and 1.082 and 1.481 and 1.146
Smac.M.Q normalized RPPA signal [1]: 0.850 and 1.137 and 0.963 and 0.983
Smad1.R.V normalized RPPA signal [1]: 0.960 and 0.924 and 0.963
Smad3.R.V normalized RPPA signal [1]: 1.062 and 0.979 and 1.026
Smad4.R.V normalized RPPA signal [1]: 1.013 and 1.128 and 0.985
Snail.M.Q normalized RPPA signal [1]: 0.664 and 0.941 and 0.860 and 0.822
Sox2.R.V normalized RPPA signal [1]: 1.126 and 1.008 and 0.910 and 1.015
Sox17.R.V normalized RPPA signal [1]: 0.905 and 1.111 and 1.000 and 1.005
Src.M.V normalized RPPA signal [1]: 0.883 and 1.206 and 0.940 and 1.010
Src_pY416.R.V normalized RPPA signal [1]: 1.030 and 0.914 and 0.902
Src_pY527.R.V normalized RPPA signal [1]: 1.278 and 0.689 and 0.973
Stat1_pY701.R.V normalized RPPA signal [1]: 0.995 (2×) and 1.011 and 1.000
Stat3.R.C normalized RPPA signal [1]: 0.999 and 0.915 and 0.942
Stat3_pY705.R.C normalized RPPA signal [1]: 1.077 and 1.148 and 1.012 and 1.079
Stat5a.R.V normalized RPPA signal [1]: 1.155 and 0.661 and 0.766 and 0.861
Stathmin.1.R.V normalized RPPA signal [1]: 0.870 and 1.129 and 0.982
Syk.M.V normalized RPPA signal [1]: 0.771 and 0.940 and 1.123 and 0.945
Synaptophysin.R.C normalized RPPA signal [1]: 0.939 and 1.003 and 0.960
TAZ.R.V normalized RPPA signal [1]: 0.664 and 1.279 and 1.012
TEAD.R.C normalized RPPA signal [1]: 0.761 and 0.855 and 1.077 and 0.898
TFAM.R.V normalized RPPA signal [1]: 0.933 and 0.917 and 0.914 and 0.921
TFRC.R.V normalized RPPA signal [1]: 0.993 and 0.819 and 0.888 and 0.900
TIGAR.R.V normalized RPPA signal [1]: 0.948 and 0.928 and 0.972
TRAP1.M.V normalized RPPA signal [1]: 0.886 and 1.063 and 0.996
TRIM24.R.C normalized RPPA signal [1]: 0.955 and 1.027
TRIM25.R.C normalized RPPA signal [1]: 0.793 and 0.863 and 1.102 and 0.919
TRIP13.R.V normalized RPPA signal [1]: 1.018 and 1.029 and 1.031
Tau.M.C normalized RPPA signal [1]: 1.047 and 1.298 and 0.928
Transglutaminase.M.V normalized RPPA signal [1]: 1.016 and 1.436 and 2.172 and 1.541
